Source: US9334272B2, “Derivatives of purinic and pyrimidinic antiviral agents and use thereof as potent anticancer agents” (Ramot at Tel-Aviv University Ltd., priority 2007, dated 2016)

Columns and labels:
[1] = test system: phospho-H2AX (Ser139); assay: Phospho-H2AX Western blot, U-251 cells; format: cell-based, human; conditions: 60 μM, 0.5, 2 or 24 hours, peak after 2 hours
Experimental: Cell lysates or acid extracted histones were solubilized in a concentrated (×4) loading buffer (62.5 mM Tris-HCl, pH 6.8, 1% SDS, 10% glycerol v/v, 1% dithiothreitol (DTT) and 0.1 mg/ml bromophenol blue). Proteins (10-40 μg) were run on SDS-PAGE, transferred to a nitrocellulose membrane (Schleicher & Schuell, Germany) and probed with the primary antibodies, followed by incubation with a horseradish peroxidase (HRP)-goat anti-rabbit IgG or HRP-rabbit anti-mouse IgG as secondary antibodies. HRP bound to the secondary antibodies was visualized by the enhanced chemiluminescence method using the Western Blotting Luminol reagent (Santa Cruz, Calif., USA). The membrane was exposed for 5 minutes to Chemiluminescence BioMax light film (Kodak, USA) and the intensity of the bands was measured with a VersaDoc instrument with a Quantityl program (Bio-Rad, USA). The fold increase of each specific protein was determined by the ratio of band intensities of treated and untreated cells, normalized to loading control (actin or total histone H3).

[2] = test system: 4T1 murine breast carcinoma; assay: Metastatic 4T1 breast carcinoma model; format: in vivo, mice; conditions: 25 mg/kg, 4T1 model, p<0.05
Experimental: The syngeneic murine breast carcinoma metastatic model was performed with 8-10 weeks old BALB-c mice implanted with 4T1 cells. When the tumor volume reached 75-180 mm^3 (after ˜10 days), treatment was initiated for an additional 21 days. At termination, the animals were sacrificed and their lungs removed, stained with Bouin's solution, and lung lesions were scored under an illuminated magnifying glass.

[3] = test system: 22RV1 cells; assay: Hoechst viability assay, 22RV1 prostate carcinoma cells; format: cell-based, human
Experimental: (§1) Cells (in quadruplicate) at the specified density were suspended in 200 μL medium supplemented with 10% FCS seeded in 96-well plates for 24 hours, then exposed to the drugs for 72 hours. The viability of the cells was determined by Hoechst fluorescent assay as described by Nudelman et al., 2005. Leukemic cell viability after 72 hours of treatment was determined by an MTT (3-(4,5-dimethylthiazol-2-yl)-2,5-diphenyltetrazolium bromide) assay as described by Levovich et al., 2007.
(§2) IC50 values were determined by linear regression of the percentage of survival following drug titration.

[4] = test system: acetylated histone H4; assay: Histone H4 acetylation Western blot, U-251 cells; format: cell-based, human; conditions: 2-4 hours of treatment
Experimental: (§3) For the determination of in vitro histone acetylation, 2.5-3×10^6 cells, seeded in 100 mm culture dishes, were supplemented with RPMI medium containing 10% heat inactivated FCS and were treated with the drugs the following day. At the specified times post-treatment, the cells were removed with a rubber policeman, centrifuged, washed, lysed with lysis buffer (PBS, Nonidet® NP-40 1%, sodium deoxycholate 0.5%, sodium dodecyl sulfate (SDS) 0.1%, 1 mM phenylmethylsulfonyl fluoride (PMSF), 1 mM sodium orthovanadate, and 1 μM each of leupeptin and pepstatin) and centrifuged at 10,000 g for 10 minutes at 4° C. […] The extract was then lyophilized, and protein concentration was determined with a BCA kit (Pierce, USA). […] The fold increase of acetylated histones was determined by the ratio of band intensities of treated and untreated cells or mice, normalized to loading control (total histone H3).
(§4) Cell lysates or acid extracted histones were solubilized in a concentrated (×4) loading buffer (62.5 mM Tris-HCl, pH 6.8, 1% SDS, 10% glycerol v/v, 1% dithiothreitol (DTT) and 0.1 mg/ml bromophenol blue). […] The membrane was exposed for 5 minutes to Chemiluminescence BioMax light film (Kodak, USA) and the intensity of the bands was measured with a VersaDoc instrument with a Quantityl program (Bio-Rad, USA). […]

[5] = test system: acetylated histone H4; assay: In vivo histone H4 acetylation in 4T1 tumors (Western blot); set-up: species or system mice; conditions: 100 mg/kg each, 4 hours after treatment, vs vehicle
Experimental: as §3, §4

[6] = test system: HL-60 cells; assay: MTT viability assay, HL-60 leukemic cells; format: cell-based, human
Experimental: as §1, §2

[7] = test system: U-251 cells; assay: Cell cycle analysis (propidium iodide flow cytometry), U-251 cells; format: cell-based, human
Experimental: Cells (4×10^5) were seeded in 35 mm culture dishes and after 24 hours were starved in medium without serum for an additional 24 hours, and then treated with the drug for an additional 24 hours. The cells were then trypsinized to a single cell suspension in PBS, washed, and resuspended in PBS at a concentration of 10^6 cells/mL. The cells were fixed with 70% ethanol for 30 minutes at 4° C., centrifuged and resuspended in 1 ml PBS containing 0.1% Tween 20 and 0.05% bovine serum albumin (BSA). RNase free of DNase was added, and the cell suspension (10^6 cells) was incubated at […] for 30 minutes. The cell suspension was then chilled on ice to a temperature in the range of 2 to 8° C. Propidium iodide (50 μg/mL) was added to the cell suspension, which was than kept in the dark. Red fluorescence (>630 nm) was analyzed on the flow cytometer.

[8] = test system: 4T1 cells; assay: Hoechst viability assay, 4T1 breast carcinoma cells (Dox combination); format: cell-based, murine; conditions: Mus musculus, 72 hours, 3 experiments
Experimental: as §1, §2
The combination index for drug interaction was calculated by Chou's Median Effect Analysis (MEA) [Chou, 2006]. The combination index (CI) was defined as CI=D1/(DM)1+D2/(DM)2, where D1 and D2 are the doses of drug 1 and drug 2, respectively, (DM)1 and (DM)2 are the doses of drug 1 and drug 2 and their mixture (in a specified ratio) required to produce a median effect, e.g., IC50. CI<1, =1 or >1 indicates synergism, additive effect, and antagonism respectively.

[9] = test system: U-251 cells; assay: Reactive oxygen species by DCF-DA FACS, U-251 cells; format: cell-based, human; conditions: 2 hour treatment
Experimental: ROS levels were determined by FACS analysis of U-251 cells treated with dichlorodihydrofluorescein diacetate (DCF-DA), which becomes fluorescent when oxidized.

[10] = test system: ICR mice; assay: Acute toxicity assay in mice; format: in vivo; conditions: 2 weeks
Source text: (§5) Male ICR mice, 8 weeks old (Harlan, Israel) were acclimated for 10 days before administration of the tested compounds. The animals were monitored for two weeks and weighed three times per week.

[11] = Acute toxicity assay in mice; format: in vivo; conditions: male, mouse, in vivo; single per os dose, ICR mice
Source text: as §5

Compound: CCCC(CCC)C(=O)Nc1nc2c(ncn2COCCOC(=O)C(CCC)CCC)c(=O)[nH]1 [Compound 6, N-valproyl-9-(2-valproyloxy)ethoxymethylguanine]
- level of phosphorylated H2AX [1]: induced an increase in the level of phosphorylated H2AX
- lung weight [2]: reduction in lung weight
- number of observed lung lesions [2]: reduction in the number of observed lung lesions
- activity relative to acyclovir [3]: > 100 fold
- IC50 ([3]; Homo sapiens, 72 hours, Hoechst, read-out: IC50): 23.2 ± 1.9 µM
- acetylation of histone H4 [4]: induced acetylation of H4
- levels of acetylated H4 in tumors [5]: significantly higher levels of acetylated H4
- IC50 fold lower than that of VA [6]: over 20 fold
- IC50 fold lower than that of the mixture of VA and acyclovir ([6]; acyclovir:VA 1:2): over 50 fold
- Percentage of cells in G0-G1 stage ([7]; 25 μM, 24 hours): 48.5%
- Percentage of cells in G2-M stage ([7]; 25 μM, 24 hours): 33.9%
- Percentage of cells in S stage ([7]; 25 μM, 24 hours): 17.5%
- Percentage of cells in G0-G1 stage ([7]; 50 μM, 24 hours): 77.1%
- Percentage of cells in G2-M stage ([7]; 50 μM, 24 hours): 13.3%
- Percentage of cells in S stage ([7]; 50 μM, 24 hours): 9.5%
- cell-cycle arresting concentration, fold lower than acyclovir and valproic acid ([7]; 25-50 μM vs 1 mM): at least 20 fold
- phase of cell-cycle arrest ([7]; 25-50 μM, 24 hours): G0-G1 phase
- IC50 [8]: 33.7 µM
- level of oxidation in cells (ROS) [9]: considerably increased the level of oxidation in cells
- Survival (%) ([10]; single per os dose 150 mg/kg): 100%
- Survival (%) ([10]; single per os dose 200 mg/kg): 100%
- Survival (%) ([10]; single per os dose 250 mg/kg): 91.8%
- Survival (%) ([10]; single per os dose 500 mg/kg): 100%
- Survival (%) ([10]; single per os dose 750 mg/kg): 100%
- LD50 at 2 weeks [11]: > 750 mg/kg
